Experimental data taken from PMC9544171, “Glucose‐dependent insulinotropic polypeptide receptor antagonist treatment causes a reduction in weight gain in ovariectomised high fat diet‐fed mice” (British Journal of Pharmacology, 2022).
Where a SMILES comes first, the peptide text is derived from it. The star is where a group is joined. C16 diacid = O=C(O)CCCCCCCCCCCCCCC(=O)*

Experiments:
human GIP receptor = molecular target: T1, human GIP receptor (Homo sapiens, UniProt P48546); assay: cAMP accumulation, antagonism of human GIP(1‐42) in transfected COS‐7 cells; type: cell-based; conditions: COS‐7 transiently transfected with human GIPR; 10 min preincubation with antagonist, then human GIP(1‐42) at 50%–80% of Emax for 20 min; HitHunter cAMP; Hill slope −1.0; n = 5 independent experiments; read-out: IC50, inhibition of hGIP‐induced cAMP accumulation, human GIPR
T1 construct: host or cells: COS-7
T1 sequence (P48546 22-466): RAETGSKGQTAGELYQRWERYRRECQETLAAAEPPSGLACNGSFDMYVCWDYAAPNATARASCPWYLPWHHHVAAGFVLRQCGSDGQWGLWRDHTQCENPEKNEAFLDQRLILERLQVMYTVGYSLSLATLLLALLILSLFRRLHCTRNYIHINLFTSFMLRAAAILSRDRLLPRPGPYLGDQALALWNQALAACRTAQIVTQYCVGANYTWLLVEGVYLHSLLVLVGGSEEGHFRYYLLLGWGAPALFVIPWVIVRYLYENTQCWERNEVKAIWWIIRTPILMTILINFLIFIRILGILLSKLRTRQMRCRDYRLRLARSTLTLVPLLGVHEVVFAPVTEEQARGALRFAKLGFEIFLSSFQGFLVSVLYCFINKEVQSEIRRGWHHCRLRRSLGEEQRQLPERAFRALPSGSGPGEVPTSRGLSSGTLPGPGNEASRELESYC
Procedure: COS‐7 cells were cultured at 10% CO2 and 37°C in Dulbecco's Modified Eagle Medium 1885 supplemented with 10% foetal bovine serum, 2‐mM glutamine, 180‐units ml^−1 penicillin and […] streptomycin. Transient transfection of the cells with either human or mouse GIP receptor was performed using the calcium phosphate precipitation method as previously described (van der Velden et al., [2021]). A second set of cells was transiently transfected with either mouse GLP‐1 or GLP‐2 receptor. Following the day after transfection, the cells were seeded in white 96‐well plates with a density of 35.000 cells per well. The next day the assay was initiated by washing the cells with HEPES buffered saline (HBS) followed by an incubation step with HBS and 1‐mM 3‐isobutyl‐1‐methylxanthine for 30 min at 37°C. For agonist studies, the ligands were then added and incubated for an additional 30 min at 37°C. […] Luminescence was measured by PerkinElmer™ Envision 2014 Multilabel Reader. […]
Results are presented as mean ± SE. Data were analysed with one‐way and two‐way analysis of variance (ANOVA) with Tukey's or Sidak multiple comparisons test and Student's unpaired t tests where appropriate. […] For the in vitro data IC50 values were determined by nonlinear regression using GraphPad Prism 9 (San Diego, California, USA). […]

Female C57Bl6/J mice = assay: Intraperitoneal glucose tolerance test, inhibition of exogenous GIP; type: in vivo, mouse
Procedure: To assess the biological activity of mGIPAnt‐1, we performed an intraperitoneal glucose tolerance test. Mice were fasted for 4 h and given either mGIPAnt‐1 ([…]; s.c.) or vehicle at t = −90 min. Group sizes were as follows:‐ Vehicle + Vehicle, n = 10, Vehicle + GIP, n = 12 and mGIPAnt‐1 + GIP, n = 8. Varying group numbers were due to unsuccessful administration of one of the four compounds as confirmed by measurements of plasma concentrations. At t = −10 all mice were given an intraperitoneal (i.p.) injection with dipeptidyl peptidase‐4 (DPP‐4) inhibitor valine pyrrolidide followed by s.c. injection of either 25 nmol·kg^−1 GIP (Synthetic mouse GIP(1‐42) or vehicle. At t = 0 min, mice received an i.p. injection with 0.5‐g·kg^−1 glucose. Blood glucose was measured from the tail vein using a hand‐held glucometer (Accu‐Chek Mobile, Roche, Basel, Switzerland) at t = 0, 10, 30, 45, 60, 120 and 180 min. Retro‐orbital blood samples (50 μl) were taken using EDTA coated glass capillaries (Vitrex, Vasekær, Denmark) at t = 0, 15, 30 and 60, 120 and 180 min and centrifuged at 3500g, 20 min, 4°C. Plasma was transferred into Eppendorf tubes on dry ice and stored at −20°C for later insulin measurements.
To facilitate comparisons of assay outputs (cAMP assays), the results (of duplicate measurements) were normalized, with the response to 10 pM of GIP(1‐42) set as 100%. All ligand concentrations are reported as log‐transformed. The IC50 log values can be found in Figure 1. In Figure 3c, we have subtracted glucose levels from baseline to show the net differences in glucose levels in our different treatment groups.

Structure (SMILES): CC[C@H](C)[C@H](NC(=O)[C@H](CO)NC(=O)[C@H](Cc1ccc(O)cc1)NC(=O)[C@H](CC(=O)O)NC(=O)[C@H](CO)NC(=O)[C@@H](NC(=O)[C@H](Cc1ccccc1)NC(=O)[C@@H](NC(=O)CNC(=O)[C@@H](N)CCC(=O)O)[C@@H](C)O)[C@@H](C)CC)C(=O)N[C@@H](C)C(=O)N[C@@H](CCSC)C(=O)N[C@@H](CC(=O)O)C(=O)N[C@@H](CCCCN)C(=O)N[C@H](C(=O)N[C@@H](CCCCNC(=O)CCCCCCCCCCCCCCC(=O)O)C(=O)N[C@@H](CCC(N)=O)C(=O)N[C@@H](CCC(N)=O)C(=O)N[C@@H](CC(=O)O)C(=O)N[C@@H](Cc1ccccc1)C(=O)N[C@H](C(=O)N[C@@H](CC(N)=O)C(=O)N[C@@H](Cc1c[nH]c2ccccc12)C(=O)N[C@@H](CC(C)C)C(=O)N[C@@H](CC(C)C)C(=O)N[C@@H](C)C(=O)N[C@@H](CCC(N)=O)C(=O)N[C@@H](CCCCN)C(=O)NCC(=O)N[C@@H](CCCCN)C(=O)N[C@@H](CCCCN)C(=O)N[C@@H](CC(N)=O)C(=O)N[C@@H](CC(=O)O)C(=O)N[C@@H](Cc1c[nH]c2ccccc12)C(=O)N[C@@H](CCCCN)C(=O)N[C@@H](Cc1c[nH]cn1)C(=O)N[C@@H](CC(N)=O)C(=O)O)C(C)C)[C@@H](C)CC [mGIPAnt‐1] (H-EGTFISDYSIAMDKIK(C16 diacid)QQDFVNWLLAQKGKKNDWKHN-OH)
- IC50 (human GIP receptor): 0.011 µM
- fasting (baseline) blood glucose at t = 0 of IPGTT (Female C57Bl6/J mice; mGIPAnt‐1 25 μmol·kg−1 s.c. at t = −90 min, 4 h fasted mice, versus the other two groups): significant decrease in fasting blood glucose levels
- baseline‐subtracted glucose curve during IPGTT (Female C57Bl6/J mice; mGIPAnt‐1 25 μmol·kg−1 s.c. t = −90 min, GIP 25 nmol·kg−1 s.c. and val‐pyr t = −10 min, glucose 0.5 g·kg−1 i.p., n = 8–12): did not differ
- glucose levels relative to baseline late in IPGTT (Female C57Bl6/J mice; t = 120 and 180 min, same dosing as glucose curve): glucose levels do not drop below baseline
